ChEMBL document CHEMBL1201862, “PubChem BioAssay data set” (2004)
Calls of active or inactive are those of the source.

Key:
[1] = biological target: Bcl-2-like protein 10 (Homo sapiens, UniProt Q9HD36); experiment: Isothermal titration calorimetry (ITC) with Bcl-B and compounds active in primary screen. [Related pubchem assays (depositor defined):AID1693]; format: functional
[2] = biological target: 5-hydroxytryptamine receptor 5A (Homo sapiens, UniProt P47898); experiment: Counterscreen for agonists of OPRM1-OPRD1 heterodimerization: luminescence-based cell-based high throughput dose response assay to identify agonists of 5-hydroxytryptamine (serotonin) 5A receptor (HTR5A). [Related pubchem assays (depositor defined):AID504326, AID504355, AID504692, AID504904, AID504905]; format: functional
5-hydroxytryptamine receptor 5A, sequence (P47898 whole entry, the tested form may be a part): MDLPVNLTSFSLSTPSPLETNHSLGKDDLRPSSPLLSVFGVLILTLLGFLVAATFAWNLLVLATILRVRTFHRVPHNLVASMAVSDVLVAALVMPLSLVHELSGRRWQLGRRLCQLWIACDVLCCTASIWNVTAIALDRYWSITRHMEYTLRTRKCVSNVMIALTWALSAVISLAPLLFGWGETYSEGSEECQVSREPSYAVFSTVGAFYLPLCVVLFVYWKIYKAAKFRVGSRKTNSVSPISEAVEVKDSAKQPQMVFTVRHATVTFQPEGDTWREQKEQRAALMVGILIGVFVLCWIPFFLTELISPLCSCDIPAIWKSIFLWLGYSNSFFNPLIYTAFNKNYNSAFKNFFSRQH

[3] = blockers of HIV-1 envelope-mediated cell-cell fusion – cherry-pick, dose response (AID 652057); format: functional, cell-based
[4] = biological target: T1, Short transient receptor potential channel 4 (Mus musculus, UniProt Q9QUQ5); experiment: calcium entry via TRPC4 opening agents – cell-based, HEK293 TRPC4/mu-opioid, Fluo-4 calcium, dose response (AID 434937); format: functional
T1 sequence (Q9QUQ5 whole entry): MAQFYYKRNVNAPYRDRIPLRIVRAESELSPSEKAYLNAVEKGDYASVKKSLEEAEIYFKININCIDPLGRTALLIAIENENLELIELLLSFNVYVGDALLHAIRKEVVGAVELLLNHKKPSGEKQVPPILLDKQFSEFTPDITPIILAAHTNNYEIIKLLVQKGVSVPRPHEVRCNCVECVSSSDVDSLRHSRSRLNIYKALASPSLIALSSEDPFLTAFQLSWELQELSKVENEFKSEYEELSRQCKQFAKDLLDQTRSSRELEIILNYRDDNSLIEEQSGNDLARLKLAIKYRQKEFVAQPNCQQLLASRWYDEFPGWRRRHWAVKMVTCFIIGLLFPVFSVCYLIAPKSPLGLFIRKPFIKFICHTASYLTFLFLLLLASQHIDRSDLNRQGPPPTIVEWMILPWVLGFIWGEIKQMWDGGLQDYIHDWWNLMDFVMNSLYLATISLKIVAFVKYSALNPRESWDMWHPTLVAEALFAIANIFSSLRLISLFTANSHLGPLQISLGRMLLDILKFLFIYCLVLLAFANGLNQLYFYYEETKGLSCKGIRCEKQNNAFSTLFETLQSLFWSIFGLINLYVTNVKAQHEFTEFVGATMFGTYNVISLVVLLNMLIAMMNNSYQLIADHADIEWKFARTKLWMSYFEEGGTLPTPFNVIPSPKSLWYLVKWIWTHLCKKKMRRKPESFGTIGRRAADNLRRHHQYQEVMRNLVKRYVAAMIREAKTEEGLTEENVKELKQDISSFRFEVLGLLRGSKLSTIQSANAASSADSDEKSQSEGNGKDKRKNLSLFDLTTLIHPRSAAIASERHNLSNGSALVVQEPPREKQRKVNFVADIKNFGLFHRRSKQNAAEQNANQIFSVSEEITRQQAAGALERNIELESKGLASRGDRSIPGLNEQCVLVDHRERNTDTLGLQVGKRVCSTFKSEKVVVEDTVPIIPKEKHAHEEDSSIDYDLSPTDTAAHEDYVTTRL

[5] = blockers of HIV-1 ZM109 envelope-driven cell-cell fusion – HeLa effector, CEM target cells, luciferase, cherry-pick, dose response (AID 652058); format: functional, cell-based;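 also: luciferase signal from HIV-1 Env mediated cell-cell fusion of effector and target cells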
[6] = HIV-1 AD8 envelope cell-cell fusion blockers – cherry-pick, dose response (AID 652062); format: functional, cell-based;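 also: luciferase signal from cell-cell fusion driven by HIV-1 clade B AD8 Env; potency is for inhibitors of fusion seen as a drop in luminescence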
[7] = biological target: Mu-type opioid receptor (Homo sapiens, UniProt P35372); experiment: Counterscreen for agonists of heterodimerization of the mu 1 (OPRM1) and delta 1 (OPRD1) opioid receptors: Luminescence-based cell-based high throughput dose response assay to identify agonists of OPRM1 homodimerization.; format: functional;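 also: U2OS cells expressing OPRM1 and beta-arrestin as split beta-galactosidase partners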
Mu-type opioid receptor, sequence (P35372 whole entry): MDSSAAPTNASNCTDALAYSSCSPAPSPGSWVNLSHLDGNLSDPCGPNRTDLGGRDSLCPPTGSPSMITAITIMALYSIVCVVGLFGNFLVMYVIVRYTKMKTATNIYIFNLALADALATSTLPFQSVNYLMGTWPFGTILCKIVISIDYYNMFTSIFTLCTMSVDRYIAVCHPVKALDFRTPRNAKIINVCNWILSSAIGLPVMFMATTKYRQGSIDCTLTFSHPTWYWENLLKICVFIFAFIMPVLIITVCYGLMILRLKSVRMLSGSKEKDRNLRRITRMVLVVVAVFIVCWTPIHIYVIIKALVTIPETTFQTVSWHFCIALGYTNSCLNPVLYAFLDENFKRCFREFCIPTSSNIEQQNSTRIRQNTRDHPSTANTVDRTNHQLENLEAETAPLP

[8] = biological target: Delta-type opioid receptor (Homo sapiens, UniProt P41143); experiment: Counterscreen for agonists of heterodimerization of the mu 1 (OPRM1) and delta 1 (OPRD1) opioid receptors: Luminescence-based cell-based high throughput dose response assay to identify agonists of OPRD1 homodimerization. [Related pubchem assays (depositor defined):AID504326, AID504355, AID504692, AID504904, AID504905]; format: functional
[9] = off-target signal loss in HeLa-CEM21 co-culture – HeLa F-luc CTL cells, cherry-picked, counter-screen for HIV-1 Env fusion inhibitor project, dose response (AID 652040); format: functional, cell-based;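 also: potency for signal decrease marking cytotoxic or nonspecific inhibition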
[10] = biological target: Beta-2 adrenergic receptor (Homo sapiens, UniProt P07550); experiment: ADRB2 activation measured by internalization – cell-based, FAP fluorogen, flow cytometry, cherry pick 1, dose response (AID 588763); format: functional
Beta-2 adrenergic receptor, sequence (P07550 whole entry): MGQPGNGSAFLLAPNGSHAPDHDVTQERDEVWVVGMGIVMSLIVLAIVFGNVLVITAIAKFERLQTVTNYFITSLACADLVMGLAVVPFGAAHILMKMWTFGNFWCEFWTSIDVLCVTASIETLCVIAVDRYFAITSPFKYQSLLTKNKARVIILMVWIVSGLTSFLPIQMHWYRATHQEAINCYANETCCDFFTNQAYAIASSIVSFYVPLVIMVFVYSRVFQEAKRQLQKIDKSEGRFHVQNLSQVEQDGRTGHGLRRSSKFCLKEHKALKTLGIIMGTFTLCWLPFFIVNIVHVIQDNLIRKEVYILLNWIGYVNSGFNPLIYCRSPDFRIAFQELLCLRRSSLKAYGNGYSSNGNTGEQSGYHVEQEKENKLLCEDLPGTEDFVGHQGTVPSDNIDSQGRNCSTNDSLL

[11] = decrease of insulin promoter-GFP reporter – imaging, high-content screening, mouse beta cells (AID 1628); format: functional; conditions: MIN6
[12] = MIN6 cell viability loss – mouse insulinoma, cytotoxicity control, dose response (AID 2122); format: functional;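 also: confirmatory high-throughput counterscreen run to flag cytotoxic compounds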
[13] = test system: INS1; experiment: INS-1E mitochondrial potential rescue under cytokines – cell-based, JC-1 fluorescence ratio, dry powder, dose response (AID 488931); format: functional; conditions: Rattus norvegicus
[14] = test system: INS1; experiment: beta-cell survival under cytokine stress – INS-1E, ATP luminescence, dry powder, dose response (AID 488844); format: functional, cell-based; conditions: Rattus norvegicus
[15] = test system: HeLa; experiment: toxicity to human HeLa cells – cell-based, 48 h, plate reader, cherry-picks, cytotoxicity control, dose response (AID 504942); format: functional
[16] = biological target: Acyl-homoserine lactone acylase PvdQ (Pseudomonas aeruginosa (strain LESB58), UniProt Q9I194); experiment: PvdQ acylase enzyme activity blockers – biochemical, fluorescence, plate reader and imaging, cherry-picks, dose response (AID 493231)
Acyl-homoserine lactone acylase PvdQ, sequence (Q9I194 24-193 limits assumed): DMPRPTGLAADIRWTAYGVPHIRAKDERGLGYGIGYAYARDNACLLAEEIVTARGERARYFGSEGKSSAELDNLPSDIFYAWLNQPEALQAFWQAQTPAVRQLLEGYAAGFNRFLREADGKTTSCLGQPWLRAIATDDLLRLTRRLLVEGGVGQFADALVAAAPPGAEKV
Acyl-homoserine lactone acylase PvdQ, sequence (Q9I194 217-762 limits assumed): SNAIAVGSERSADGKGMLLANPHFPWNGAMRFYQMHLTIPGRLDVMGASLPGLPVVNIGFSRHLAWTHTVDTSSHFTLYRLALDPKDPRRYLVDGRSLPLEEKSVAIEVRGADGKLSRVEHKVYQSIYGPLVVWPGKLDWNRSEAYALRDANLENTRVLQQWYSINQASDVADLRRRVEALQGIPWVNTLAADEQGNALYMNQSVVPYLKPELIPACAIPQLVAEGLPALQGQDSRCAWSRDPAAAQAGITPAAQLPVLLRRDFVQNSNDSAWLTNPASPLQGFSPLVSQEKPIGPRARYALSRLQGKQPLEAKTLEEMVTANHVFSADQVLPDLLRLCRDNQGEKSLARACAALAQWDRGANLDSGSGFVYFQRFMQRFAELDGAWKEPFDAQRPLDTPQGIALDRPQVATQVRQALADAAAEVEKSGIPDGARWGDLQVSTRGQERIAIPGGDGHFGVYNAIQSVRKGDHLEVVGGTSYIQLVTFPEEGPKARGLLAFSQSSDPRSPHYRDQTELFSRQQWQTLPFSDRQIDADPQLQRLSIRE

[17] = luciferase reporter signal suppression in cells – H4 neuroglioma cells, luminescence, dose response (AID 1990); format: functional, cell-based
[18] = alpha-synuclein stem-loop luciferase translation blockers – H4 neuroglioma cells, luminescence, confirmation (AID 1988); format: functional, cell-based
[19] = test system: Candida albicans; experiment: single-agent toxicity toward C. albicans – CaCi-2 strain, no fluconazole, dry powder, set 4, counter-screen for reversing antifungal drug resistance, dose response (AID 488932); format: functional, organism-based
[20] = test system: Candida albicans; experiment: C. albicans growth inhibition with fluconazole – CaCi-2 strain, Alamar Blue, dry powder, set 4, dose response (AID 488943); format: functional, organism-based
[21] = test system: Candida albicans; experiment: fluconazole-resistant Candida strain growth inhibitors – CaCi-8 strain, dry powder, set 4, dose response (AID 488950); format: functional, organism-based
[22] = biological target: T2, Endoribonuclease toxin MazF (Escherichia coli K-12, UniProt P0AE70); experiment: activation of MazEF endoribonuclease cleavage – biochemical, fluorescence, single-stranded RNA substrate, uHTS hits, dose response (AID 588481); format: functional
T2 sequence (P0AE70 whole entry): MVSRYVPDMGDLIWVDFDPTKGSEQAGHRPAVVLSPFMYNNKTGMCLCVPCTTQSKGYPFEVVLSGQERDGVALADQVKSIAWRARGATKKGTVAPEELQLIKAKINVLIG

[23] = biological target: T2, Endoribonuclease toxin MazF; experiment: substrate-only fluorescence increase artefacts – biochemical, single-stranded RNase substrate, counter-screen for MazEF activator project, dose response (AID 588502); format: functional
[24] = test system: INS1; experiment: INS-1E survival protection against cytokine death – cell-based, luminescence, retest, dose response (AID 449756); format: functional; conditions: Rattus norvegicus;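 also: cell death triggered by IL-1 beta plus TNF-alpha plus IFN-gamma mixture; protective hits raise ATP signal compared with cytokine alone wells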
[25] = biological target: DNA topoisomerase (Yersinia pestis, UniProt A0A2S9PM60); experiment: Yersinia topoisomerase I cleavage product accumulation – biochemical, cherry-pick, dose response (AID 588525)
DNA topoisomerase, sequence (A0A2S9PM60 whole entry): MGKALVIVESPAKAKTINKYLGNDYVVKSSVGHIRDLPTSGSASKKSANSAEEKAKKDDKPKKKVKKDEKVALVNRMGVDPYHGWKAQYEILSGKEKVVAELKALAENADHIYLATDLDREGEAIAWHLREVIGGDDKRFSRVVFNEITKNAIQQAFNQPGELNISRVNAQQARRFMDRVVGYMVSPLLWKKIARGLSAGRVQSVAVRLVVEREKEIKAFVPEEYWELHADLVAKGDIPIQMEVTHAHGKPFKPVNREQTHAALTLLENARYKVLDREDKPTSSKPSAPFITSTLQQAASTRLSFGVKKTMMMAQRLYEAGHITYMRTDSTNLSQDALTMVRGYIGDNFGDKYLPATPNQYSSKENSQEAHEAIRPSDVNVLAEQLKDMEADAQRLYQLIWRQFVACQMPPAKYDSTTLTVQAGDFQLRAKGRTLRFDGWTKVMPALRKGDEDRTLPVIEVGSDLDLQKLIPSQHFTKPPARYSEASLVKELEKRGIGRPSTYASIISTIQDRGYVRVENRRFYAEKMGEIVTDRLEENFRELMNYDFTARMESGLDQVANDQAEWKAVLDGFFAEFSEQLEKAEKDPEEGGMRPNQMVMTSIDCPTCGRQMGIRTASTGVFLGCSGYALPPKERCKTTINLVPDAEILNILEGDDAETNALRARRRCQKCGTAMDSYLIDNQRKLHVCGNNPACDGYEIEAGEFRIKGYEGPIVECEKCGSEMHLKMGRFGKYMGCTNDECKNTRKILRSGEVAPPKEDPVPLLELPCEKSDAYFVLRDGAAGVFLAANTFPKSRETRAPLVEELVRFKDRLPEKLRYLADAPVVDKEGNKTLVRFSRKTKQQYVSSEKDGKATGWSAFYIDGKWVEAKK

[26] = biological target: Phospholipase D1 (Homo sapiens, UniProt Q13393); experiment: cellular phospholipase D1 inhibition IC50 – cell-based, dose response (AID 602151); format: functional;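 also: cellular PLD1 assay in Calu-1 cells stimulated with PMA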
Phospholipase D1, sequence (Q13393 whole entry): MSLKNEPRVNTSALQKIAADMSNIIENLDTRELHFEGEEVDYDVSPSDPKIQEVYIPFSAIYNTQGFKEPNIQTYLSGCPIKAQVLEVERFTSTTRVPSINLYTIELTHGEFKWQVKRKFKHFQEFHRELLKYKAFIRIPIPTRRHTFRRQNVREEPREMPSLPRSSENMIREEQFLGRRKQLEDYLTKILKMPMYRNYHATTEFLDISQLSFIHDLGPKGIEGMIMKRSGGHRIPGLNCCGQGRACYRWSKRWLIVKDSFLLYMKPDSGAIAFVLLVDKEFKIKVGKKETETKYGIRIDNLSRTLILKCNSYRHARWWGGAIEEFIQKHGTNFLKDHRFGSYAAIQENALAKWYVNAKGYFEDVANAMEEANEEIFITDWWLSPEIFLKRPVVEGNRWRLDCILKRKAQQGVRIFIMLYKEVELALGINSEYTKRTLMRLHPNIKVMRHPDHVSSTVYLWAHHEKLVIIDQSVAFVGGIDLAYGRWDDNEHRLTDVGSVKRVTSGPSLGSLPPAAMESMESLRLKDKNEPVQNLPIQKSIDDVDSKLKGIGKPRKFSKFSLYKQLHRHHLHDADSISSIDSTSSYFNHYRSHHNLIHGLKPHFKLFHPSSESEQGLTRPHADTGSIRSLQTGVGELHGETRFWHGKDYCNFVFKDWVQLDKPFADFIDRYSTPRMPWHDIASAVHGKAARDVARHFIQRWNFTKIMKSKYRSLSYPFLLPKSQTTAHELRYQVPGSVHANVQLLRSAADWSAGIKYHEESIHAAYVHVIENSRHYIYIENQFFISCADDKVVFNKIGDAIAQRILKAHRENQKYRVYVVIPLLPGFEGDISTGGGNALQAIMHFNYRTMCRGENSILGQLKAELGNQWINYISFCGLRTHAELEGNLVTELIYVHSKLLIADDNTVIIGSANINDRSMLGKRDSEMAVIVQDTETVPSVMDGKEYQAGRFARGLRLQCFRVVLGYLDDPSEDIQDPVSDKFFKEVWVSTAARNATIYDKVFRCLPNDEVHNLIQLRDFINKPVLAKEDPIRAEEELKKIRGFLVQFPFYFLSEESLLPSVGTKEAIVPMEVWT

[27] = biological target: Phospholipase D2 (Homo sapiens, UniProt O14939); experiment: cellular phospholipase D2 inhibition IC50 – cell-based, dose response (AID 602147); format: functional;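 also: cellular assay in HEK293 cells overexpressing GFP-tagged PLD2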
[28] = biological target: T3, CAAX prenyl protease 2 (Saccharomyces cerevisiae S288c, UniProt Q03530); format: biochemical
T3 sequence (Q03530 whole entry): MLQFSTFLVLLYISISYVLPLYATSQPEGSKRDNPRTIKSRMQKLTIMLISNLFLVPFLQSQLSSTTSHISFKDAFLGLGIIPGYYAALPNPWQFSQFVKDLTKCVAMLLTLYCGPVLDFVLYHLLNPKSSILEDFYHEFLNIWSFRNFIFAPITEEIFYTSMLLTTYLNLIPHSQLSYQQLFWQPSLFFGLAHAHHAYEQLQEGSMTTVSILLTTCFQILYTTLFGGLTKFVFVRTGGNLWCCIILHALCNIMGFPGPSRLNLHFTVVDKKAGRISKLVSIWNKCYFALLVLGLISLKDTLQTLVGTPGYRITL

[29] = biological target: Trypsin (Sus scrofa, UniProt P00761); experiment: trypsin protease activity blockade – biochemical, quenched peptide fluorescence, cherry-pick, selectivity assay for Rce1 protease inhibitor project, dose response (AID 488789)
[30] = biological target: CAAX prenyl protease 2 (Homo sapiens, UniProt Q9Y256); experiment: inhibition of Ras-converting CAAX protease Rce1 – biochemical, yeast membranes, quenched-peptide fluorescence, cherry-pick, dose response (AID 588849)
[31] = biological target: Short transient receptor potential channel 6 (Mus musculus, UniProt Q61143); experiment: mouse TRPC6 channel blockers, concentration series – HEK293 cells, membrane potential dye, IC50, selectivity assay for selective TRPC4 inhibitor project, dose response (AID 492987); format: functional, cell-based
[32] = biological target: T1, Short transient receptor potential channel 4; experiment: potency of mouse TRPC4 calcium flux blockers – cell-based, HEK293 TRPC4/mu-opioid, DAMGO stimulus, Fluo-4, dose response (AID 492994); format: functional
[33] = biological target: T1, Short transient receptor potential channel 4; experiment: SAR Analysis for the identification of selective inhibits of the transient receptor potential cation channel C4 (TRPC4): Automated Electrophysiology. [Related pubchem assays (depositor defined):AID2256]; format: functional
[34] = biological target: T4, Hexokinase HKDC1 (Homo sapiens, UniProt Q2TB90); experiment: analog inhibition of human HKDC1 activity – biochemical, set 2, SAR follow-up (AID 588355); format: functional
T4 sequence (Q2TB90 whole entry): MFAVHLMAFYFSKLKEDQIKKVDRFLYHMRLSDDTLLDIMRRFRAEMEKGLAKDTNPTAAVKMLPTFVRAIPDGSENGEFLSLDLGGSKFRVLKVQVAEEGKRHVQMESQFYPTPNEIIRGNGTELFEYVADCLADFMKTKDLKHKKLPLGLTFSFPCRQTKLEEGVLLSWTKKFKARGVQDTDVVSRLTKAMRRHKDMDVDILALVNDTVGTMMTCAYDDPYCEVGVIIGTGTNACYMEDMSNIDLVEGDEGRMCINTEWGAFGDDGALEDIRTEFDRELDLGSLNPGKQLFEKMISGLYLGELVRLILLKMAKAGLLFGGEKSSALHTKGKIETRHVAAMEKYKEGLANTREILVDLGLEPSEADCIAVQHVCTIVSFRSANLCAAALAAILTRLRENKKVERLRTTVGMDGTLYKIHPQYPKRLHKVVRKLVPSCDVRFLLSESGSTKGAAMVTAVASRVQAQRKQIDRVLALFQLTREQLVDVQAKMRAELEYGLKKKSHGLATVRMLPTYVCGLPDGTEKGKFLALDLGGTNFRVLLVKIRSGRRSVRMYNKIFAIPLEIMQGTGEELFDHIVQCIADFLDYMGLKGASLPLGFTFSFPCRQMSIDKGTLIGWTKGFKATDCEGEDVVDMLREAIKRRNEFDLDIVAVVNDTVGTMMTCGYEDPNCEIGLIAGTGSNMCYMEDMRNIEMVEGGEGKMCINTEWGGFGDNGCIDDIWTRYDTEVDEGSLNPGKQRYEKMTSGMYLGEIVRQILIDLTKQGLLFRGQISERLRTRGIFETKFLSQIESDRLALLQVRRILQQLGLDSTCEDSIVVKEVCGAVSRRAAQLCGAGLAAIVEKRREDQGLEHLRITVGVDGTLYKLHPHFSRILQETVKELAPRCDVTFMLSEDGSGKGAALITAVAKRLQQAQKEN

[35] = biological target: Hexokinase-1 (Homo sapiens, UniProt P19367); experiment: hexokinase 1 activity inhibitors, potency – biochemical, set 2, resazurin fluorescence coupled readout, selectivity assay for HKDC1 inhibitor project, SAR follow-up (AID 588356); format: functional
Hexokinase-1, sequence (P19367 whole entry): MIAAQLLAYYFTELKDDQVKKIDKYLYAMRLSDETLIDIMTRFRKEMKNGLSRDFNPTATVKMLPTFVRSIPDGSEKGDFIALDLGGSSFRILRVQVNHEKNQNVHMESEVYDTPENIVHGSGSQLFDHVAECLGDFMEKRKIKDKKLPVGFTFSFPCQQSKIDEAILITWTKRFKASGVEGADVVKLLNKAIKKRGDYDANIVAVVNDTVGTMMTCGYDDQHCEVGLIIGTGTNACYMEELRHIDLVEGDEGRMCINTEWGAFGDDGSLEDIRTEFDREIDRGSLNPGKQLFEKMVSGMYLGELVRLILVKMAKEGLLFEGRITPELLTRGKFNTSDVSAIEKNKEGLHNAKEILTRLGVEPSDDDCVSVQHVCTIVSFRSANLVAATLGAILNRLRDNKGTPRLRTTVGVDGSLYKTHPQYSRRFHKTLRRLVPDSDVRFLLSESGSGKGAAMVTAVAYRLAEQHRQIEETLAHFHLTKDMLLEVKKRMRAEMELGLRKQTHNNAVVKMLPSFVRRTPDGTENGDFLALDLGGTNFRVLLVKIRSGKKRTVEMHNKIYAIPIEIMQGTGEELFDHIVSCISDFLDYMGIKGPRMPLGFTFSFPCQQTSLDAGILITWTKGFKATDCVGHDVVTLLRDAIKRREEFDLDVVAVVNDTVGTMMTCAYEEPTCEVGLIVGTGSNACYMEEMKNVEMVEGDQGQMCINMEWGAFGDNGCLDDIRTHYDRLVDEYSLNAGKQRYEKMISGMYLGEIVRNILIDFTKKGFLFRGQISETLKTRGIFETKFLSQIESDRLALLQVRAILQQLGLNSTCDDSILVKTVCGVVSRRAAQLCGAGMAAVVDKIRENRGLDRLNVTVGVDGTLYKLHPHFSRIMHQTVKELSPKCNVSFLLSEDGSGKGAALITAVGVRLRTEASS

O=C1NC(=O)C2(Cc3c(nc4ccccn4c3=O)N3CCCCCC32)C(=O)N1Cc1ccccc1 (stereo not given)
IC50 [1]: 2.51 µM (active)

Cc1ccc(C)c(-n2cc(CNCCCn3cccn3)c(-c3ccccc3)n2)c1
EC50 [2]: > 92.5 µM (inactive) | AC50 [3]: 1.28 µM (active) | EC50 [4]: 1.5 µM (active) | AC50 [5]: 0.631 µM (active) | AC50 [6]: 2.56 µM (active) | EC50 [7]: 10.1 µM (inactive) | EC50 [8]: > 92.5 µM (inactive) | AC50 [9]: 1.82 µM (active)

CC1(C)Cc2c(c(-c3ccco3)nc3sc4c(NCCO)ncnc4c23)CO1
EC50 [10]: 0.0133 µM (active) | IC50 [11]: 0.909 µM (active) | IC50 [12]: > 16 µM (inactive)

Cc1ccc(S(=O)(=O)N(C)C[C@@H]2Oc3c(NC(=O)Nc4ccccc4)cccc3C(=O)N([C@H](C)CO)C[C@H]2C)cc1
AC50 [13]: 141 µM (active) | AC50 [14]: 22.6 µM (active)

COc1ccc(C2=C(C=O)Cc3ccccc3O2)cc1
AC50 [15]: > 380 µM (inactive) | AC50 [16]: 4.37 µM (active) | EC50 [17]: > 120 µM (not active) | EC50 [18]: > 120 µM (not active)

O=C(c1ccc(Cl)cc1)N1CCN(c2cnccn2)CC1
AC50 [19]: 234 µM (active) | AC50 [20]: 12.7 µM (active) | AC50 [21]: 10.7 µM (active)

Cc1ccc(O)c(C2=Nc3ccccc3N=C(c3ccco3)C2)c1
EC50 [22]: > 99 µM (inactive) | EC50 [23]: 75.1 µM (inactive)

CC(C)(C)OC(=O)NCc1ccc(NC(=O)c2[nH]cnc2C(=O)NCCNC(=O)c2nc[nH]c2C(=O)Nc2ccc(CNC(=O)OC(C)(C)C)cc2)cc1
AC50 [24]: 6.59 µM (active) | AC50 [25]: 2.49 µM (active)

O=C(NCCN1CCC2(CC1)C(=O)NCN2c1ccc(F)c(F)c1)c1ccc(Cl)cc1
IC50 [26]: 2.36 µM (active) | IC50 [27]: 0.37 µM (active)

CC1=C(C)C(C)=C(C#N)C(=C(C#N)C#N)N1
AC50 [28]: 13.2 µM (active) | AC50 [29]: 12.1 µM (active) | AC50 [30]: 13.9 µM (active)

Cc1cc(N2CCCCC2)nc2ccc(F)cc12
IC50 [31]: 20.1 µM (active) | IC50 [32]: 10.5 µM (active) | IC50 [33]: 6.18 µM (active)

O=c1c2c(F)cccc2nc(/C=C/c2cccnc2)n1Cc1ccccc1
IC50 [34]: > 80 µM (inactive) | IC50 [35]: > 80 µM (inactive)
